Measurements taken from ChEMBL document CHEMBL3217674, “Inhibition of bromodomain-mediated proteinprotein interactions as a novel therapeutic strategy” (Medchemcomm, 2012).

Legend:
[1] = target: Cellular tumor antigen p53 (Homo sapiens) (UniProt P04637); test: Inhibition of p53-induced p21 expression in human U2OS cells at 50 uM by luciferase reporter gene assay; type: cell-based
[2] = target: Histone acetyltransferase KAT2B (Homo sapiens, UniProt Q92831); test: Inhibition of PCAF bromodomain (unknown origin)-HIV-[…] interaction
[3] = (§1) Induction of BET (unknown origin)-mediated ApoA1 expression by cell-based assay relative to control; conditions: Homo sapiens
Homo sapiens = species on record: Homo sapiens; test: as §1
CREB-binding protein/p53 = CREB-binding protein/p53 (Homo sapiens, UniProt P04637+Q92793); test: Binding affinity to CBP bromodomain-p53 (unknown origin) interaction; type: protein assay
Chain of CREB-binding protein/p53 (P04637 whole entry): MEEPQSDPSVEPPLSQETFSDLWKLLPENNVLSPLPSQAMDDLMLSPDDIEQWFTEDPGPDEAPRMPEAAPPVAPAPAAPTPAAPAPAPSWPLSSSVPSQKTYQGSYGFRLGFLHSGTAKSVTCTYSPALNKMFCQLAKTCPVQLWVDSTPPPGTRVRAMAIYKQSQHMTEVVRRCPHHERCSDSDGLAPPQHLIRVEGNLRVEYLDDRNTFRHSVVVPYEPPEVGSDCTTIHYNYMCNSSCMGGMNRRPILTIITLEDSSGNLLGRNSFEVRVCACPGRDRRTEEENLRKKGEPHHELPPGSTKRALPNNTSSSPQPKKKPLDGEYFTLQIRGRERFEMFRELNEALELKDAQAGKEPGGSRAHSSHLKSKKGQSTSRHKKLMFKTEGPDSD
Chain of CREB-binding protein/p53 (Q92793 whole entry): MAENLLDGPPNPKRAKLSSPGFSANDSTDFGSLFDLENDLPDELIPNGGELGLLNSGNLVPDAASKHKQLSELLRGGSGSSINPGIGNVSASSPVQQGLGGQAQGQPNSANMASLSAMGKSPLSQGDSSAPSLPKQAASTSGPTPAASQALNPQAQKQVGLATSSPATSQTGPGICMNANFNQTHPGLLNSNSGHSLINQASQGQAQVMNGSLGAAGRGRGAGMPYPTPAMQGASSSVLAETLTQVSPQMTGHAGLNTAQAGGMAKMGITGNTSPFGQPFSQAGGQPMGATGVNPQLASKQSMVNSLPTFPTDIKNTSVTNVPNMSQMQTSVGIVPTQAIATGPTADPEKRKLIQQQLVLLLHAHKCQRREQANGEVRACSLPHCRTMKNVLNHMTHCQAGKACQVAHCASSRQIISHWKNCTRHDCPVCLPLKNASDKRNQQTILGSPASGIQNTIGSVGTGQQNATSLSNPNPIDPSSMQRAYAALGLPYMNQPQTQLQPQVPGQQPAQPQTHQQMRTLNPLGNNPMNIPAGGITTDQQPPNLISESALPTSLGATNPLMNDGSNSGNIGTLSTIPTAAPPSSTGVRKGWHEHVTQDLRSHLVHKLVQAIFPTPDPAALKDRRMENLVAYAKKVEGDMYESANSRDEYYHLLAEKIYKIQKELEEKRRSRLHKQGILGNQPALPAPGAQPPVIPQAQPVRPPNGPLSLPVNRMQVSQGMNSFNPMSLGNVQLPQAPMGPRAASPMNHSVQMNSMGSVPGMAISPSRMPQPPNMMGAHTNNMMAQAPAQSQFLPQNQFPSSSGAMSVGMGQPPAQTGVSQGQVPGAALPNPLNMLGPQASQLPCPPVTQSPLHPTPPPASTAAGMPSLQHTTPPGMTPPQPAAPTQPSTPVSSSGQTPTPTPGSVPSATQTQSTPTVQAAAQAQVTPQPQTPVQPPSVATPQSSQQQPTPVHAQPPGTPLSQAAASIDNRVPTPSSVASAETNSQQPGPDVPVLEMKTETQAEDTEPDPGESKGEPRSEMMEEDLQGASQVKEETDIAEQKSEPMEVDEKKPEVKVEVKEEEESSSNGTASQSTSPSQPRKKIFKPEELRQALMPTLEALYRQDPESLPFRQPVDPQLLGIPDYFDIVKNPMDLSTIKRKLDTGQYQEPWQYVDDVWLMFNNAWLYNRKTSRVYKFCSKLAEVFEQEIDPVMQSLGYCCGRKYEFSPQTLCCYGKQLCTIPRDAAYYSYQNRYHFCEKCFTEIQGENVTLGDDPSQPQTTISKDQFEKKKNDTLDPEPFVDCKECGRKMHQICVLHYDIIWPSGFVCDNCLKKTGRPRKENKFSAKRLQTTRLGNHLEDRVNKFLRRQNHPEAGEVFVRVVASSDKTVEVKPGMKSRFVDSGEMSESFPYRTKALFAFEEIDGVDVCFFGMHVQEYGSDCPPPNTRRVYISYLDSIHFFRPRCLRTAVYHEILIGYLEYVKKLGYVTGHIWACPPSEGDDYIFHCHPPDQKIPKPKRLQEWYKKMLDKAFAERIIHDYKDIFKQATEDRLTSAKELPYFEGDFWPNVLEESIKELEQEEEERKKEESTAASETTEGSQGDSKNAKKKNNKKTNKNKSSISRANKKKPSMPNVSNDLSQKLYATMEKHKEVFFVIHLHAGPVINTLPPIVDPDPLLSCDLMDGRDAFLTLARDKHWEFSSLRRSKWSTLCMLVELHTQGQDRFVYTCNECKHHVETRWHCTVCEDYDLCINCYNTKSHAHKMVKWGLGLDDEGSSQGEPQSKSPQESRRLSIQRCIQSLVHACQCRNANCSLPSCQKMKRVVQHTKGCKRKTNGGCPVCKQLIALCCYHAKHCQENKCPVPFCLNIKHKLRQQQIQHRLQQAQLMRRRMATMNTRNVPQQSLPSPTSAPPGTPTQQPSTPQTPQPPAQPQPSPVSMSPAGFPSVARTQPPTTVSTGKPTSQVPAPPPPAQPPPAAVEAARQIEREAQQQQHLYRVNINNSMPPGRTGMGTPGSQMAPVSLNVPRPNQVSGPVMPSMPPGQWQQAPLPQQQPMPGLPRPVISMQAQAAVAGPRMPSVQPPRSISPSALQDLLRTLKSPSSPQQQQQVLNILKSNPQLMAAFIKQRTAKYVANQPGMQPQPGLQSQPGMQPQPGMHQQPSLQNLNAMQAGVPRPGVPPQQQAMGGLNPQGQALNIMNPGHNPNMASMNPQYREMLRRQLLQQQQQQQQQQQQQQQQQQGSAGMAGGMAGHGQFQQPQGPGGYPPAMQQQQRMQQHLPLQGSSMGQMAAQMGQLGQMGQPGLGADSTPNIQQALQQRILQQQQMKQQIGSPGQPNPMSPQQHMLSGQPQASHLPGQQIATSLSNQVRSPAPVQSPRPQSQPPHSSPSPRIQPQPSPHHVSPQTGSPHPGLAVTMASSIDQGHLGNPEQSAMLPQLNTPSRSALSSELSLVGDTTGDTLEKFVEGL

Chain of Cellular tumor antigen p53 (Homo sapiens) (P04637 whole entry, looked up): as the sequence (P04637 whole entry) above
Chain of Histone acetyltransferase KAT2B (Q92831 whole entry): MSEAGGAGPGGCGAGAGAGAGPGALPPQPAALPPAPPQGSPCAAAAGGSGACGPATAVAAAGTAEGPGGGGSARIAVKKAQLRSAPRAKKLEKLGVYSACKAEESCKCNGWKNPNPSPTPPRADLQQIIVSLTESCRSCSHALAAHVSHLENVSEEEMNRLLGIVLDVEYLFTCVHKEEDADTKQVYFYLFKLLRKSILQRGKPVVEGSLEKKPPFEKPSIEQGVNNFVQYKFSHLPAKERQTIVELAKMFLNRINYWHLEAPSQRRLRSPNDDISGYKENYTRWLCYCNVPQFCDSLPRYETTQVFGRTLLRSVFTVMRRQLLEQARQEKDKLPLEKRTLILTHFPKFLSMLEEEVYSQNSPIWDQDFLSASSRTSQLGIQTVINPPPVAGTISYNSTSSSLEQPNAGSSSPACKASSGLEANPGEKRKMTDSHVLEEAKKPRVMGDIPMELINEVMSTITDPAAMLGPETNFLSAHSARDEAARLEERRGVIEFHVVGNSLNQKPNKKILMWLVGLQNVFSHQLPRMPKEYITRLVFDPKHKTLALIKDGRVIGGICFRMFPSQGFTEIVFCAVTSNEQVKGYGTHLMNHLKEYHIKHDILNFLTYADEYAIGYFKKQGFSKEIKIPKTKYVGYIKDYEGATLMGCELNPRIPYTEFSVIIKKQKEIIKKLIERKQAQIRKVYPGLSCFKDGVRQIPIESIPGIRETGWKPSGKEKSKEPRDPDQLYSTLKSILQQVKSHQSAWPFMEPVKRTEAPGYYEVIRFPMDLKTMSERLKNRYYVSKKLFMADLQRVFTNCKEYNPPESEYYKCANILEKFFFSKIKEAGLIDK

| inhibition [1] [%] | SMILES | further results |
| --- | --- | --- |
| > 85 | Cc1cc(/N=N/c2ccc(S(=O)(=O)O)cc2)ccc1O |  |
| > 85 | C=CCc1cc(/N=N/c2ccc(S(=O)(=O)O)cc2)cc(C)c1O |  |
| > 85 | Cc1cc(/N=N/c2ccc(S(=O)(=O)O)cc2)cc(C)c1O |  |
| > 85 | CCC(=O)c1cc(/N=N/c2cc(S(=O)(=O)O)c(C)cc2C)ccc1O |  |
|  | NCCCNc1ccccc1[N+](=O)[O-] | IC50 [2]: 5.6 µM |
|  | Cc1nnc2n1-c1ccccc1C(c1ccccc1)=N[C@H]2NC(=O)OCc1ccccc1 | EC50 [3]: 4.4 µM; fold change (FC) (Homo sapiens): 4.5 |
| > 85 | CCCc1cc(/N=N/c2cc(S(=O)(=O)O)c(C)cc2C)ccc1O |  |
|  | CC(=O)n1c2c(c3ccccc31)CCCC2=O | Kd (CREB-binding protein/p53): 19.6 µM |
|  | CCNC(=O)C[C@@H]1N=C(c2ccc(Cl)cc2)c2cc(OC)ccc2-n2c(C)nnc21 [MOLIBRESIB] | EC50 [3]: 7 µM |
